Experimental data taken from ChEMBL document CHEMBL6178021, “Optimization of Tambjamines Active against Multiple Stages of Malaria Parasites” (J Med Chem, 2025).
Converted amounts (≈) assume the structure as drawn.

Key:
Plasmodium falciparum [1] = assay: Antiplasmodial activity against asexual blood-stage Plasmodium falciparum Tm90-C2B using 2% haematocrit and 0.2% parasitemia assessed as reduction in fluorescence measured after 72 hrs by Malaria SYBR Green I-based Fluorescence (MSF) assay; type: functional, organism-based
HepG2 = assay: (§1) Cytotoxicity against human HepG2 cells assessed as cell viability measured after 48 hrs by MTT assay; type: toxicity, cell-based; conditions: hepg2
[2] = Metabolic stability in human liver microsomes assessed as half life measured up to 60 mins by LC/MS analysis; type: ADME, Microsome
[3] = Metabolic stability in mouse liver microsomes assessed as half life measured up to 60 mins by LC/MS analysis; type: ADME, Microsome
Plasmodium yoelii [4] = assay: Antimalarial activity against erythrocytic Plasmodium yoelii MRA-428 infected in CF1 mouse assessed as reduction in parasitemia at 10 mg/kg, po once daily for 4 days measured on day 5; type: functional; set-up: scale not given: the % may be the effect or the level left; conditions: time 4 day
Plasmodium yoelii [5] = assay: Antimalarial activity against erythrocytic Plasmodium yoelii MRA-428 infected in CF1 mouse assessed as reduction in parasitemia at 25 mg/kg, po once daily for 4 days measured on day 5; type: functional; set-up: scale not given: the % may be the effect or the level left; conditions: time 4 day
[6] = Solubility of the compound in potassium phosphate buffer at pH 7.4 by UV-vis spectroscopy
MDR1 (human) [7] = assay: (§2) Apparent permeability across apical to basolateral side in MDCK transfected with human MDR1 cells incubated for 1 hr by LC-MS analysis; conditions: dog, MDCK-MDR1
[8] = (§3) Apparent permeability across basolateral to apical side in MDCK transfected with human MDR1 cells incubated for 1 hr by LC-MS analysis; conditions: dog, mdck, 1 h
MDR1 (human) [9] = assay: Efflux ratio, ratio of apparent permeability across apical to basolateral side over basolateral to apical side in MDCK transfected with human MDR1 cells incubated for 1 hr by LC-MS analysis; conditions: dog
in vitro [10] = conditions: human
Description: Selectivity index, ratio of IC50 for cytotoxicity against human HepG2 cells to IC50 for antiplasmodial activity against asexual blood-stage Plasmodium falciparum D6

in vitro [11] = conditions: human, liver microsomes
in vitro [12] = conditions: mouse, liver microsomes
Plasmodium falciparum [13] = assay: microbe, parasite or virus in culture; conditions: D6, 72 h
Description: Antiplasmodial activity against asexual blood-stage Plasmodium falciparum D6 using 2% haematocrit and 0.2% parasitemia assessed as reduction in fluorescence measured after 72 hrs by Malaria SYBR Green I-based Fluorescence (MSF) assay

Plasmodium falciparum [14] = assay: microbe, parasite or virus in culture; conditions: Dd2, 72 h
Description: Antiplasmodial activity against asexual blood-stage Plasmodium falciparum Dd2 using 2% haematocrit and 0.2% parasitemia assessed as reduction in fluorescence measured after 72 hrs by Malaria SYBR Green I-based Fluorescence (MSF) assay

Plasmodium yoelii [15] = assay: Antimalarial activity against erythrocytic Plasmodium yoelii MRA-428 infected in CF1 mouse assessed as reduction in parasitemia at 50 mg/kg, po once daily for 4 days measured on day 5; type: functional; set-up: scale not given: the % may be the effect or the level left; conditions: time 4 day
Plasmodium yoelii [16] = assay: Antimalarial activity against erythrocytic Plasmodium yoelii MRA-428 infected in CF1 mouse assessed as cured mouse at 10 mg/kg, po once daily for 4 days measured on day 28 day; type: functional, organism-based; conditions: time 4.0 day
Plasmodium yoelii [17] = assay: Antimalarial activity against erythrocytic Plasmodium yoelii MRA-428 infected in CF1 mouse assessed as cured mouse at 25 mg/kg, po once daily for 4 days measured on day 28 day; type: functional, organism-based; conditions: time 4.0 day
Plasmodium yoelii [18] = assay: Antimalarial activity against erythrocytic Plasmodium yoelii MRA-428 infected in CF1 mouse assessed as cured mouse at 50 mg/kg, po once daily for 4 days measured on day 28 day; type: functional, organism-based; conditions: time 4.0 day
MDR1 (human) [19] = assay: as §3; conditions: dog, MDCK-MDR1
Plasmodium yoelii [20] = assay: Antimalarial activity against erythrocytic Plasmodium yoelii MRA-428 infected in CF1 mouse assessed as reduction in parasitemia at 80 mg/kg, po once daily for 4 days measured on day 5; type: functional; set-up: scale not given: the % may be the effect or the level left; conditions: time 4 day
Plasmodium yoelii [21] = assay: Antimalarial activity against erythrocytic Plasmodium yoelii MRA-428 infected in CF1 mouse assessed as cured mouse at 80 mg/kg, po once daily for 4 days measured on day 28 day; type: functional, organism-based; conditions: time 4.0 day
[22] = as §2; conditions: dog, mdck, 1 h
[23] = as §1; type: toxicity, cell-based; conditions: human, HepG2 cells
Plasmodium berghei [24] = assay: Anti-malarial activity against Luciferase-expressing Plasmodium berghei sporozoites inoculated in po dosed Albino C57BL/6 mouse malaria model assessed as elimination of parasites in liver by measuring bioluminescence signal measured after 48 hrs; type: functional, organism-based
Plasmodium berghei [25] = assay: Anti-malarial activity against Luciferase-expressing Plasmodium berghei sporozoites inoculated in po dosed Albino C57BL/6 mouse malaria model assessed as elimination of parasites in blood by measuring bioluminescence signal measured after 72 hrs; type: functional, organism-based

Papp A→B at 1 h (MDR1 (human) [7]) [×10⁻⁶ cm/s] | efflux ratio at 1 h (MDR1 (human) [9]) | SMILES | IC50 (Plasmodium falciparum [1]) [nM] | IC50 (HepG2) [nM] | half-life [2] [h] | half-life [3] [h] | Activity (Plasmodium yoelii [4]) [%] | Activity (Plasmodium yoelii [5]) [%] | solubility ([6]; buffer) [µM] | Papp [8] | selectivity ratio (in vitro [10]) | microsomal CLint at 1 h (in vitro [11]) [µL/min/mg] | microsomal CLint at 1 h (in vitro [12]) [µL/min/mg] | IC50 (Plasmodium falciparum [13]) [nM] | IC50 (Plasmodium falciparum [14]) [nM] | Activity (Plasmodium yoelii [15]) [%] | Activity (Plasmodium yoelii [17]) | Activity (Plasmodium yoelii [18]) | Papp [22] | other results
0.002 | 0.23 | CCC1=C(CC)/C(=C/NC23C[C@H]4C[C@@H](C2)C[C@@H](C3)C4)N=C1c1ccc(Br)[nH]1 | 15.6 | 4020 | > 1 | > 1 | 33.1 | 67.1 | 25.8 (≈ 11.1 µg/mL) | 0.39 ×10⁻⁶ cm/s | 222 | 14.4 | 7.36 | 18.1 | 24.6 |  |  |  |  | 
0.027 | 0.24 | CCC1=C(CC)/C(=C/NC23C[C@H]4C[C@@H](C2)C[C@@H](C3)C4)N=C1c1ccc(C)[nH]1 | 1.01 | 2450 | 0.582 | > 1 | 100 | 100 | 10.9 (≈ 3.96 µg/mL) |  | 2620 | 39.7 | 13.8 | 0.934 | 0.823 | 100 | Not active; None Of The Mouse Cured Out Of Four Tested | Active; Two Mouse Cured Out Of Four |  | Activity (Plasmodium yoelii [16]): Not active; None Of The Mouse Cured Out Of Four Tested; Papp B→A at 1 h (MDR1 (human) [19]): 0.006 ×10⁻⁶ cm/s
0.015 | 8.7 | CCC1=C(CC)/C(=C/N[C@H]2CC[C@H](C)CC2)N=C1c1ccc[nH]1 | 97.1 |  |  |  | 88.8 | 100 | 205 (≈ 63.9 µg/mL) |  | 235 | 59.5 | 37 | 67.9 | 89.3 | 100 | Active; Two Mouse Cured Out Of Four | Active; Two Mouse Cured Out Of Four |  | Activity (Plasmodium yoelii [20]): 100%; Activity (Plasmodium yoelii [21]): Not active; None Of The Mouse Cured Out Of Four Tested; Papp B→A at 1 h (MDR1 (human) [19]): 0.13 ×10⁻⁶ cm/s
 |  | COc1ccc(Cc2ccc(C3=N/C(=C\NC4CCCCCC4)C4=C3CCCC4)[nH]2)cc1 | 2.8 | 1340 | > 1 | > 1 | 0 | 0 | 11.4 (≈ 4.9 µg/mL) |  |  | 3.18 | 2.07 | 6.1 | 5.56 |  |  |  | 0.7 ×10⁻⁶ cm/s | 
0.002 | 0.37 | CCC1=C(CC)/C(=C/NC23C[C@H]4C[C@@H](C2)C[C@@H](C3)C4)N=C1c1cc2cc(Cl)ccc2[nH]1 | 175 | 5020 | > 1 | > 1 |  |  | 18.3 (≈ 7.94 µg/mL) | 0.85 ×10⁻⁶ cm/s | 47 | 8.8 | 4.72 | 106 | 133 |  |  |  |  | 
 |  | CCC1=C(CC)/C(=C/NC2CCCCCC2)N=C1c1ccc(Cc2ccc(OC)cc2)[nH]1 | 16.3 | 4340 | > 1 | > 1 | 0 | 0 | 20.5 (≈ 8.85 µg/mL) |  |  | 2.23 | 2.27 | 9.93 | 8.42 |  |  |  | 0.18 ×10⁻⁶ cm/s | 
 |  | CCC1=C(CC)/C(=C/NC2CCCCC2)N=C1c1ccc(Cc2ccc(OC)cc2)[nH]1 | 11.6 | 7810 | > 1 | > 1 | 0 | 0 | 14.4 (≈ 6.01 µg/mL) | 0.43 ×10⁻⁶ cm/s |  | 3.37 | 1.94 | 9.26 | 7.25 |  |  |  | 0.15 ×10⁻⁶ cm/s | 
 |  | CCC1=C(CC)/C(=C/NC2CCCCCCC2)N=C1c1ccc(CC)[nH]1 | 7.8 | 2720 | > 1 | > 1 | 63.1 | 100 | < 3.125 | 0.28 ×10⁻⁶ cm/s |  | 7 | 14.6 | 15.9 | 7.21 | 100 | Not active; None Of The Mouse Cured Out Of Four Tested | Not active; None Of The Mouse Cured Out Of Four Tested |  | 
 |  | COc1ccc(Cc2ccc(C3=N/C(=C\NC4CCCCCC4)C4=C3OCCO4)[nH]2)cc1 | 15.1 | 1480 | > 1 | > 1 | 1.5 |  | 5.52 (≈ 2.39 µg/mL) | 0.57 ×10⁻⁶ cm/s |  | 16.1 | 20.6 | 11.9 | 21.3 |  |  |  |  | 
 |  | CCc1ccc(C2=N/C(=C\NC3CCCCCC3)C3=C2CCCC3)[nH]1 | 1.74 | 1060 | > 1 | > 1 | 22.7 | 100 | 15.4 (≈ 5.2 µg/mL) |  |  | 8.31 | 10.3 | 4.8 | 1.36 | 100 | Not active; None Of The Mouse Cured Out Of Four Tested | Not active; None Of The Mouse Cured Out Of Four Tested | 0.24 ×10⁻⁶ cm/s | Papp B→A at 1 h (MDR1 (human) [19]): 0.003 ×10⁻⁶ cm/s
 | 0.14 | CCC1=C(CC)/C(=C/NC23CC4CC(CC(C4)C2)C3)N=C1c1cc2ccccc2[nH]1 | 410 |  | > 1 | 0.818 |  |  |  |  | 99.8 | 4.02 | 28.3 | 70.2 | 59.3 |  |  |  | 0.58 ×10⁻⁶ cm/s | IC50 at 48 h [23]: 7010 nM; solubility ([6]; potassium phosphate buffer): 11.5 µM (≈ 4.6 µg/mL)
 |  | [2H]C([2H])(C)c1ccc(C2=N/C(=C\NC3CCCCCC3)C(C)=C2C)[nH]1 | 10.1 | 6550 | > 1 | > 1 | 78.5 | 96.5 | 42 (≈ 13.2 µg/mL) | 0.007 10^-6 cm/s |  | 14 | 16 | 5.08 | 5.91 |  |  |  | 0.29 10^-6 cm/s | 
 |  | CCC1=C(CC)/C(=C/NC23CC4CC(CC(C4)C2)C3)N=C1c1ccc[nH]1 |  |  | > 1 | 0.267 | 82.5 | 100 |  |  | 2440 |  |  | 1.6 | 1.01 | 100 | Active; Three Mouse Cured Out Of Four | Active; Three Mouse Cured Out Of Four |  | Activity (Plasmodium berghei [24]): Dose-dependent-effect; IC50 at 48 h [23]: 3900 nM; Activity (Plasmodium yoelii [20]): 100%; Activity (Plasmodium yoelii [21]): Active; Four Mouse Cured Out Of Four; Activity (Plasmodium berghei [25]): Dose-dependent-effect

SMILES | Papp A→B at 1 h (MDR1 (human) [7]) [×10⁻⁶ cm/s] | efflux ratio at 1 h (MDR1 (human) [9]) | IC50 (Plasmodium falciparum [1]) [nM] | IC50 (HepG2) [nM] | half-life [2] [h] | half-life [3] [h] | Activity (Plasmodium yoelii [4]) [%] | Activity (Plasmodium yoelii [5]) [%] | solubility ([6]; buffer) [µM] | Papp [8] | selectivity ratio (in vitro [10]) | microsomal CLint at 1 h (in vitro [11]) [µL/min/mg] | microsomal CLint at 1 h (in vitro [12]) [µL/min/mg] | IC50 (Plasmodium falciparum [13]) [nM] | IC50 (Plasmodium falciparum [14]) [nM] | Activity (Plasmodium yoelii [15]) [%] | Activity (Plasmodium yoelii [17]) | Activity (Plasmodium yoelii [18]) | Papp [22] | other results
CCC1=C(CC)/C(=C/NC2CCCCC2)N=C1c1ccc(Br)[nH]1 | 0.004 | 0.038 | 172 |  | > 1 | > 1 |  |  | 4.46 (≈ 1.68 µg/mL) | 0.15 ×10⁻⁶ cm/s |  |  | 16 |  | 336 |  |  |  |  | 
CCC1=C(CC)/C(=C/NC2CCCCCC2)N=C1c1ccc(C)[nH]1 | 0.007 |  | 9.02 | 4220 | > 1 | > 1 | 92.2 | 100 | 35.9 (≈ 11.7 µg/mL) | 0.45 ×10⁻⁶ cm/s |  | 18.3 | 16.6 | 4.47 | 3.83 | 100 | Not active; None Of The Mouse Cured Out Of Four Tested | Not active; None Of The Mouse Cured Out Of Four Tested |  | 
